Test results as given in PubChem BioAssay AID463203 (Broad Institute, 2010).
Calls of active or inactive are those of the source.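 How the source made its calls: active means more than half of replicate measurements showing over 20% loss of kinase signal relative to plate controls; inconclusive means some but at most half of replicates over 20% loss; inactive means no replicate over 20% signal loss.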

Each molecule was assayed against Glycogen synthase kinase-3 alpha (Homo sapiens) (UniProt P49840) (assay: concentration-response blocking of human GSK3A – biochemical, luminescence, cell-free homogeneous, retest, dose response (AID 463203)). Conditions: GSK-3 alpha enzyme, ADP-Glo luminescence, 60 min.
Sequence of Glycogen synthase kinase-3 alpha (Homo sapiens) (P49840 whole entry, looked up): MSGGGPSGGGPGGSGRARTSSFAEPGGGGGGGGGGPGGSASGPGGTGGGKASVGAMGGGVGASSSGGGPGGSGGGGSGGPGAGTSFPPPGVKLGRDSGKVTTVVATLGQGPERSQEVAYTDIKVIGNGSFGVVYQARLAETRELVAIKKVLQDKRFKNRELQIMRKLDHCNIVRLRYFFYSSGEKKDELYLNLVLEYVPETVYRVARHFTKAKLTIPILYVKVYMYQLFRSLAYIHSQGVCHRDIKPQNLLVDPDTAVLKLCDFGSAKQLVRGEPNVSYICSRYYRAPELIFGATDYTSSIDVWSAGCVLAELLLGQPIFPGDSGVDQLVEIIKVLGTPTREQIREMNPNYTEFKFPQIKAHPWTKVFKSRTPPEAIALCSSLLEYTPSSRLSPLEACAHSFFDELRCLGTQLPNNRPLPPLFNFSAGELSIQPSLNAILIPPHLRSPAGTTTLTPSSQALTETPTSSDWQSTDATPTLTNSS
In the case of `CN(C)/N=C/c1cn(-c2ccccc2)nc1-c1cccnc1`, the AC50 is reported as > 30 µM (inactive).
With `Cc1ccc(S(=O)(=O)Nc2cccc3cccnc23)cc1` the AC50 was > 30 µM (inactive).
For `FC(F)(F)COc1ccc(-c2nnc(SCc3c(Cl)cccc3Cl)o2)cn1`, the AC50 was > 30 µM (inactive).
With `Cc1ccc(S(=O)(=O)Nc2cccc3ncccc23)cc1` the AC50 was > 30 µM (inactive).
In the case of `Cc1cc(C(C#N)c2cccc(Cl)c2)n2ncnc2n1` (configuration not stated), the AC50 is reported as 5.78 µM.
`COc1cccc(/C=c2\s/c(=C\C(=O)C(C)(C)C)[nH]c2=O)c1` was tested, and the AC50 was > 30 µM (inactive).
`CN(C)C(=O)Oc1cccc2c(OC(=O)N(C)C)cccc12` was tested, and the AC50 was > 30 µM (inactive).
`O=C1N/C(=N\S(=O)(=O)Cc2ccccc2)S/C1=C/c1cccc([N+](=O)[O-])c1` was tested, and the AC50 was > 30 µM (inactive).
`N#C/C(=N\Nc1ccccc1Cl)C(=O)c1ccccc1` was tested, and the AC50 was > 30 µM (inactive).
`CC[n+]1c(/C=C/N(C)c2ccccc2)n(-c2ccccc2)c2ccc(-c3nc4ccccc4s3)cc21` was tested, and the AC50 was > 30 µM (inactive).
For `O=C1CC(c2cccs2)CC2=C1C(c1ccccc1)n1ncnc1N2` (configuration not stated), the AC50 was > 30 µM (inactive).
In the case of `CC(C)N=C(NC#N)SCc1ccc(Br)cc1`, the AC50 is reported as > 30 µM (inactive).
In the case of `COc1cccc(N/C(SC)=C(/C#N)C(N)=O)c1`, the AC50 is reported as 30 µM.
`COC(=O)c1oc2ccc(Br)cc2c1NC(=O)c1ccccc1` was tested, and the AC50 was > 30 µM (inactive).
`CCOC(=O)c1c2c(n(C)c1C)C(=O)C(=O)c1ccc(Br)cc1-2` gave an AC50 of 15 µM.
With `CCC(CC)c1nnc(NC(=O)Oc2ccccc2)s1` the AC50 was > 30 µM (inactive).
For `O=c1[nH]c(=O)n(C2CCCCC2)c(O)c1C=NCCCn1ccnc1`, the AC50 was 4.06 µM.
With `CCOC(=O)c1cc(C)sc1NC(=O)C1CCC1` the AC50 was > 30 µM (inactive).
For `CCN(CC)C(=O)c1oc2ccc(S(=O)(=O)N3CCCCCC3)cc2c1C`, the AC50 was > 30 µM (inactive).
Work on `O=C(NCCCN1CCN(CCCNC(=O)c2ccc3c(c2)OCO3)CC1)c1ccc2c(c1)OCO2` yielded an AC50 of 27.7 µM.
`Nc1nonc1-n1nnc(C(=O)N/N=C/c2ccc(Cl)cc2Cl)c1CN1CCOCC1` was tested, and the AC50 was > 30 µM (inactive).
For `O=c1[nH]cnc(O)c1N=Nc1ccccc1`, the AC50 was 9.87 µM.
With `O=C(Nc1cccc(F)c1)C1CCCN1S(=O)(=O)c1cccc2cccnc12` (configuration not stated) the AC50 was 11.8 µM.
`Cc1ccc(-c2nnc3n2N=C(c2ccccc2Br)CS3)cc1` was tested, and the AC50 was > 30 µM (inactive).
With `O=C1C2C3c4ccccc4C(c4ccccc43)C2C(=O)N1Cc1cccnc1` (configuration not stated) the AC50 was > 30 µM (inactive).
In the case of `Oc1[nH]c2ccccc2c1N=Nc1ccccc1`, the AC50 is reported as 13.9 µM.
In the case of `Cc1cc(Nc2ccc(C(=O)O)cc2)nc(N)n1`, the AC50 is reported as > 30 µM (inactive).
With `O=C(Nc1ccccc1-c1nnc(SCc2ccccc2)o1)c1ccccc1` the AC50 was > 30 µM (inactive).
In the case of `Oc1ccc(-c2nc3ncccn3c2Nc2ccc3c(c2)OCO3)cc1`, the AC50 is reported as 6.33 µM.
For `Cc1cnn(-c2cc(N/N=C/c3ccccc3)ncn2)c1`, the AC50 was > 30 µM (inactive).
With `CCOC(=O)c1nnn(-c2ccc(OC)cc2)c1N` the AC50 was > 30 µM (inactive).
With `CN1/C(=C/C=C(C#N)C#N)C(C)(C)c2ccccc21` the AC50 was > 30 µM (inactive).
For `COc1ccccc1N=c1oc2cc(O)ccc2cc1C(=O)NCC1CCCO1` (configuration not stated), the AC50 was > 30 µM (inactive).
With `Cc1ccc(-c2cn3cccnc3n2)cc1NC(=O)c1c(-c2ccccc2Cl)noc1C` the AC50 was > 30 µM (inactive).
`CCOc1ccc(-c2nnc(N)s2)cc1` was tested, and the AC50 was > 30 µM (inactive).
`O=C(OC1CO[C@H]2O[C@@H]1[C@H](OC(=O)c1ccccc1)[C@H]2OC(=O)c1ccccc1)c1ccccc1` (some centres not stated) was tested, and the AC50 was > 30 µM (inactive).
For `Cc1ccc2oc(=O)c3cnn(CC(=O)N4CCCCC4C)c3c2c1` (configuration not stated), the AC50 was > 30 µM (inactive).
For `CNC(=O)c1ccc(NC(=O)C2CCN(c3ncnc4sc(C)c(C)c34)CC2)cc1`, the AC50 was > 30 µM (inactive).
For `C=CCNC(=S)N1CCN(c2cccc(C(F)(F)F)c2)CC1`, the AC50 was > 30 µM (inactive).
`O=Cc1cc(N=Nc2ccc(S(=O)(=O)O)cc2)ccc1O` was tested, and the AC50 was > 30 µM (inactive).
In the case of `COC(=O)Nc1nnc(COc2ccccc2)s1`, the AC50 is reported as > 30 µM (inactive).
In the case of `Cc1cc(N2CCN(c3ccccc3)CC2)n2cc(-c3ccccc3)nc2n1`, the AC50 is reported as > 30 µM (inactive).
For `CCSc1ncnc2c1sc1nc3c(cc12)COC(C)(C)C3`, the AC50 was > 30 µM (inactive).
In the case of `COc1ccc2nc(NC(=O)CSc3nnc(-c4ccoc4C)n3C)sc2c1`, the AC50 is reported as 4.62 µM.
`CC(C)CC(=O)NC(=S)Nc1sc2c(c1C(N)=O)CCC2` was tested, and the AC50 was > 30 µM (inactive).
`Cc1cccc(-c2nnc3n2N=C(c2ccc(Br)cc2)CS3)c1` was tested, and the AC50 was > 30 µM (inactive).
For `Cc1nc2sc3c(c2c(=O)o1)CC(C)(C)OC3`, the AC50 was > 30 µM (inactive).
`Cc1onc(-c2ccccc2)c1C(=O)NCCN1CCOCC1` was tested, and the AC50 was > 30 µM (inactive).
In the case of `COC(=O)c1c(C(C)=O)cnc2ccc(Br)cc12`, the AC50 is reported as > 30 µM (inactive).
`N#CC1=C2SCN(Cc3ccco3)CN2C(=O)CC1c1c(F)cccc1Cl` (configuration not stated) was tested, and the AC50 was > 30 µM (inactive).
`O=C(NC1(C(F)(F)F)NC(=O)N(Cc2cccnc2)C1=O)c1ccncc1` (configuration not stated) was tested, and the AC50 was > 30 µM (inactive).
With `C=CCN=C1NN=C(c2ccc3c(c2)OCCO3)CS1` the AC50 was > 30 µM (inactive).
`O=C1NC(=O)/C(=C/c2ccc(O)cc2)S1` gave an AC50 of 27.2 µM.
`Cc1ccc(S(=O)(=O)Nc2ccc(O)c3ncccc23)cc1` was tested, and the AC50 was > 30 µM (inactive).
With `O=[N+]([O-])c1cccnc1N1CCCNCC1` the AC50 was > 30 µM (inactive).
`Cc1ccc(C)c(-n2c3nc(=O)n(C)c(=O)c-3cc3ccccc32)c1` showed an AC50 of 31.3 µM.
In the case of `CCOC(=O)c1c(NC(=O)Cc2cccs2)sc2c1CCCC2`, the AC50 is reported as > 30 µM (inactive).
In the case of `CCN(CC)S(=O)(=O)c1ccc2oc(C(=O)N3CCOCC3)c(C)c2c1`, the AC50 is reported as > 30 µM (inactive).
With `c1ccc(CN2CCN(CCCNc3ccc4nnc(-c5ccccc5)n4n3)CC2)cc1` the AC50 was > 30 µM (inactive).
In the case of `CCc1cc2c3c(c(=O)oc2cc1O)CCCC3`, the AC50 is reported as > 30 µM (inactive).
In the case of `COCC(=O)Nc1ccc([N+](=O)[O-])cc1OC`, the AC50 is reported as > 30 µM (inactive).
`COc1cccc(/C=C2\SC(=O)NC2=O)c1OCc1ccc(C(=O)O)cc1` was tested, and the AC50 was 26.9 µM.
For `CC1(C)Cc2nc3sc4c(SCC(=O)O)ncnc4c3cc2CO1`, the AC50 was 6.18 µM.
Work on `O=C(c1ccc(Cn2cnnn2)cc1)N1CCCC(Nc2ccc(F)c(F)c2)C1` (configuration not stated) yielded an AC50 of 16.1 µM.
`COc1cc(/C=N/n2nnnc2N)ccc1OCC#N` was tested, and the AC50 was > 30 µM (inactive).
With `Cc1c(C(=O)N2CCN(c3ccccc3)CC2)oc2c(Cl)cccc12` the AC50 was > 30 µM (inactive).
`COc1ccc(N2CCOCC2)c(NC(=O)c2ccc(Br)o2)c1` gave an AC50 of 8.71 µM.
With `O=C(CSc1nc2ccccc2o1)Nc1nc2ccc(Br)cc2s1` the AC50 was > 30 µM (inactive).
With `Cc1onc(-c2ccccc2Cl)c1C(=O)Nc1cccc(-c2nc3ncccn3c2C)c1` the AC50 was > 30 µM (inactive).
`CN(C)C(=S)Nc1ccc([N+](=O)[O-])cc1` was tested, and the AC50 was > 30 µM (inactive).
With `COc1ccc(C2=Nn3c(nnc3-c3ccncc3)SC2)cc1` the AC50 was 5.49 µM.
`O=C(O)c1ccc2c(c1)S(=O)(=O)c1cc(Cl)ccc1C2=O` was tested, and the AC50 was 6.54 µM.
With `CC1CCCCC12NC(=O)N(CC(=O)Nc1sc3c(c1C(N)=O)CCC3)C2=O` (configuration not stated) the AC50 was 11.4 µM.
For `O=C1NC(=Nc2ccccc2)S/C1=C\c1cccs1`, the AC50 was > 30 µM (inactive).
Work on `Cc1ccc(/C=N/NC(=O)c2nnn(-c3nonc3N)c2-c2cccs2)cc1` yielded an AC50 of 1.04 µM.
In the case of `Oc1ccc(-c2csc(Nc3cccnc3)n2)cc1`, the AC50 is reported as 10.7 µM.
In the case of `COc1ccc(Br)cc1C(=O)Nc1ccc(NC(=O)c2ccco2)cc1`, the AC50 is reported as > 30 µM (inactive).
`COc1ccc(Nc2cc(C)nc(N)n2)cc1` was tested, and the AC50 was > 30 µM (inactive).
For `COc1c(-c2ccc(O)c(O)c2)oc2cc(O)cc(O)c2c1=O`, the AC50 was 1.93 µM.
With `Cc1c(CCC(=O)O)c(=O)oc2cc(O)ccc12` the AC50 was > 30 µM (inactive).
With `COc1ccc(S(=O)(=O)Nc2c(C(=O)O)[nH]c3ccc(OC)cc23)cc1` the AC50 was 30.7 µM.
For `COc1ccc(NC(=O)CSc2nc3[nH]ncc3c(=O)n2-c2ccccc2OC)cc1OC`, the AC50 was > 30 µM (inactive).
`COc1ccc([N+](=O)[O-])cc1NC(=O)CCN1CCN(C)CC1` was tested, and the AC50 was > 30 µM (inactive).
With `Cc1cccc(/C(N)=N/OC(=O)c2ccc3c(c2)OCO3)c1` the AC50 was 24.7 µM.
With `COc1ccc(C(=O)O/N=C(\N)c2ccccn2)c(OC)c1` the AC50 was > 30 µM (inactive).
`Cc1onc(-c2ccccc2Cl)c1C(=O)Nc1cccc(-c2cn3cccnc3n2)c1` was tested, and the AC50 was > 30 µM (inactive).
`COC(=O)c1cc(O)c(OCc2ccccc2)c(O)c1` was tested, and the AC50 was > 30 µM (inactive).
Work on `O=C1NC(=O)/C(=C/c2ccc(-c3cc(C(=O)O)ccc3Cl)o2)S1` yielded an AC50 of 13.5 µM.
With `C=CC(=O)Nc1sc2c(c1C(N)=O)CCCC2` the AC50 was 13.9 µM.
With `CC(=O)c1c(O)cc(O)cc1CC(=O)O` the AC50 was > 30 µM (inactive).
`O=C(CSc1ccc2nnc(-c3ccccc3)n2n1)N1CCCc2ccccc21` was tested, and the AC50 was > 30 µM (inactive).
In the case of `O=C1c2ccccc2C(=O)c2c(Nc3ccc(CCO)cc3)ccc(O)c21`, the AC50 is reported as > 30 µM (inactive).
`Cc1ccc(/C=N/NC(=O)c2nnn(-c3nonc3N)c2CN(C)C)s1` was tested, and the AC50 was > 30 µM (inactive).
With `O=C1Nc2ccccc2Sc2ccccc21` the AC50 was > 30 µM (inactive).
`O=C(NCC1CCCO1)c1ccc(NC(=O)c2cccc([N+](=O)[O-])c2)cc1` (configuration not stated) was tested, and the AC50 was > 30 µM (inactive).
With `CCCc1cc(=O)[nH]c(SCC(=O)Nc2sc3c(c2C(N)=O)CCCC3)n1` the AC50 was > 30 µM (inactive).
With `CC(C)(C)NC(=O)/C(=C/c1ccccc1F)NC(=O)c1ccc([N+](=O)[O-])cc1` the AC50 was > 30 µM (inactive).
Work on `COc1ccc(-c2cnc(N)nc2-c2ccc(OC)cc2O)cc1` yielded an AC50 of 9.75 µM.
For `Cc1cc2c(C)c(C)c(=O)[nH]c2cc1N`, the AC50 was > 30 µM (inactive).
For `COc1cccc(/C=N/NC(=O)c2nnn(-c3nonc3N)c2-c2cccs2)c1`, the AC50 was 0.899 µM.
With `CN(C)C=NC(=O)/C(C#N)=C/c1ccccc1` the AC50 was > 30 µM (inactive).
In the case of `CCc1ccc(/C=c2\s/c(=C\C(=O)C(C)(C)C)[nH]c2=O)cc1`, the AC50 is reported as > 30 µM (inactive).
`Cc1cnc(NC(=O)C2COc3ccccc3O2)s1` (configuration not stated) showed an AC50 of 19.2 µM.
With `COC(=O)c1c(C)c(OC(=O)c2c(C)cc(O)c(C=O)c2O)cc(C)c1O` the AC50 was > 30 µM (inactive).
`COC(=O)C1=C(C)N(CC(C)C)C(=O)/C1=C\c1cccs1` was tested, and the AC50 was > 30 µM (inactive).
With `O=C(CSc1nc2[nH]ncc2c(=O)n1-c1ccccc1Br)NCc1ccccc1Cl` the AC50 was > 30 µM (inactive).
For `CCNC(=S)NNC(=O)Cc1ccccc1`, the AC50 was > 30 µM (inactive).
